Experimental data reported in US20110098325A1, “PYRIDINE BENZAMIDES AND PYRAZINE BENZAMIDES USED AS PKD INHIBITORS” (CANCER RESEARCH TECHNOLOGY LIMITED, priority 2006, published 2011).

Molecular target: T1, Murine PKD1 kinase domain (Mus musculus, UniProt Q62101)
T1 construct: hexahistidine (pFastBac HTb leader) (N); made in house; host or cells: Sf9 insect cells, baculovirus (Bac-to-Bac HT, pFastBac HTb)
T1 sequence (Q62101 with tags, fused parts or gaps R683W): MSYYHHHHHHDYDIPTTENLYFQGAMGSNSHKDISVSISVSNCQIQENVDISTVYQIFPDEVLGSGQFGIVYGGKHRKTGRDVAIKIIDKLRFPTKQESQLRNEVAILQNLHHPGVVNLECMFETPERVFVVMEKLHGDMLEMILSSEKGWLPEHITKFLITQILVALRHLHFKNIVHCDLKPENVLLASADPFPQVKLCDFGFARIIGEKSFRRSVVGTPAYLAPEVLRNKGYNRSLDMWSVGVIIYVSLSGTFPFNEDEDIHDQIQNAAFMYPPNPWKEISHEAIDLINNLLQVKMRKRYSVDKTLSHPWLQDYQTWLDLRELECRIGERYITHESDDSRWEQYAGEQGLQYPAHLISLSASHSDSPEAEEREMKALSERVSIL
Test: PKD1 (Murine Kinase Domain) Enzyme Activity Assay (IMAP fluorescence polarisation)
Format: biochemical
Conditions: 10 μM ATP, 60 minutes, room temperature

Row | Structure (SMILES) | IC50
1 | COc1cccc(-c2cc(-c3cccc(C(=O)N(C)CCN(C)C)c3)cnc2N)c1 [Y-075, 3-[6-Amino-5-(3-methoxy-phenyl)-pyridin-3-yl]-(2-dimethylamino-ethyl)-N-methyl-benzamide] | < 1000 nM
2 | CC(=O)Nc1cccc(-c2cc(-c3cccc(C(=O)NCCN(C)C)c3)cnc2N)c1 [Y-076, 3-[5-(3-Acetylamino-phenyl)-6-amino-pyridin-3-yl]-N-(2-dimethylamino-ethyl)-benzamide] | < 1000 nM
3 | CN(C)CCNC(=O)c1cccc(-c2cnc(N)c(-c3cccc(O)c3)c2)c1 [Y-077, 3-[6-Amino-5-(3-hydroxy-phenyl)-pyridin-3-yl]-N-(2-dimethylamino-ethyl)-benzamide] | < 1000 nM
4 | CN(C)CCNC(=O)c1cccc(-c2cnc(N)c(-c3cncc4ccccc34)c2)c1 [Y-078, 3-(6-Amino-5-isoquinolin-4-yl-pyridin-3-yl)-N-(2-dimethylamino-ethyl)-benzamide] | < 1000 nM
5 | COc1cc(OC)cc(-c2cc(-c3cccc(C(=O)NCCN(C)C)c3)cnc2N)c1 [Y-081, 3-[6-Amino-5-(3,5-dimethoxy-phenyl)-pyridin-3-yl]-N-(2-dimethylamino-ethyl)-benzamide] | < 1000 nM
6 | CN(C)CCNC(=O)c1cccc(-c2cnc(N)c(-c3ccc4cc(O)ccc4c3)c2)c1 [Y-082, 3-[6-Amino-5-(6-hydroxy-naphthalen-2-yl)-pyridin-3-yl]-N-(2-dimethylamino-ethyl)-benzamide] | < 1000 nM
7 | CN(C)CCNC(=O)c1cccc(-c2cnc(N)c(-c3ccncc3)c2)c1 [Y-084, 3-(2-Amino-[3,4′]bipyridinyl-5-yl)-N-(2-dimethylamino-ethyl)-benzamide] | < 1000 nM
8 | CSc1nccc(-c2cc(-c3cccc(C(=O)NCCN(C)C)c3)cnc2N)n1 [Y-086, 3-[6-Amino-5-(2-methylsulfanyl-pyrimidin-4-yl)-pyridin-3-yl]-N-(2-dimethylamino-ethyl)-benzamide] | < 1000 nM
9 | COc1cc(-c2cc(-c3cccc(C(=O)NCCN(C)C)c3)cnc2N)cc(OC)c1OC [Y-088, 3-[6-Amino-5-(3,4,5-trimethoxy-phenyl)-pyridin-3-yl]-N-(2-dimethylamino-ethyl)-benzamide] | < 1000 nM
10 | COc1cncc(-c2cc(-c3cccc(C(=O)NCCN(C)C)c3)cnc2N)c1 [Y-089, 3-(2-Amino-5′-methoxy-[3,3′]bipyridinyl-5-yl)-N-(2-dimethylamino-ethyl)-benzamide] | < 1000 nM
11 | CN(C)CCNC(=O)c1cccc(-c2cnc(N)c(-c3cnc4ccccc4c3)c2)c1 [Y-090, 3-(6-Amino-5-quinolin-3-yl-pyridin-3-yl)-N-(2-dimethylamino-ethyl)-benzamide] | < 1000 nM
12 | COc1cccc(-c2cc(-c3cccc(C(=O)NC(C)CN(C)C)c3)cnc2N)c1 (stereo not shown) [Y-092, 3-[6-Amino-5-(3-methoxy-phenyl)-pyridin-3-yl]-N-(2-dimethylamino-1-methyl-ethyl)-benzamide] | < 1000 nM
13 | COc1cc(-c2cc(-c3cccc(C(=O)NCCN(C)C)c3)cnc2N)ncn1 [Y-093, 3-[6-Amino-5-(6-methoxy-pyrimidin-4-yl)-pyridin-3-yl]-N-(2-dimethylamino-ethyl)-benzamide] | < 1000 nM
14 | CN(C)CCNC(=O)c1cccc(-c2cnc(N)c(-c3ccc4[nH]ncc4c3)c2)c1 [Y-094, 3-[6-Amino-5-(1H-indazol-5-yl)-pyridin-3-yl]-N-(2-dimethylamino-ethyl)-benzamide] | < 1000 nM

Further lines, results first:

Row | IC50 | Structure (SMILES)
15 | < 1000 nM | CN(C)CCNC(=O)c1cccc(-c2cnc(N)c(-c3ccnc(O)c3)c2)c1 [Y-071, 3-(2-Amino-2′-hydroxy-[3,4′]bipyridinyl-5-yl)-N-(2-dimethylamino-ethyl)-benzamide]
16 | 1000 to 10000 nM | CN(C)CCNC(=O)c1cccc(-c2cnc(N)c(-c3cccc(S(C)(=O)=O)c3)c2)c1 [Y-072, 3-[6-Amino-5-(3-methanesulfonyl-phenyl)-pyridin-3-yl]-N-(2-dimethylamino-ethyl)-benzamide]
17 | 1000 to 10000 nM | CCOc1cccc(-c2cc(-c3cccc(C(=O)NCCN(C)C)c3)cnc2N)c1 [Y-073, 3-[6-Amino-5-(3-ethoxy-phenyl)-pyridin-3-yl]-N-(2-dimethylamino-ethyl)-benzamide]
18 | < 1000 nM | CNc1ncc(-c2cccc(C(=O)NCCN(C)C)c2)cc1-c1cccc(OC)c1 [Y-074, N-(2-Dimethylamino-ethyl)-3-[5-(3-methoxy-phenyl)-6-methylamino-pyridin-3-yl]-benzamide]
19 | < 1000 nM | CN(C)CCNC(=O)c1cccc(-c2cnc(N)c(-c3ccc(O)cc3)c2)c1 [Y-079, 3-[6-Amino-5-(4-hydroxy-phenyl)-pyridin-3-yl]-N-(2-dimethylamino-ethyl)-benzamide]
20 | < 1000 nM | CN(C)CCNC(=O)c1cccc(-c2cnc(N)c(-c3cccc(CC#N)c3)c2)c1 [Y-080, 3-[6-Amino-5-(3-cyanomethyl-phenyl)-pyridin-3-yl]-N-(2-dimethylamino-ethyl)-benzamide]
21 | < 1000 nM | COc1cccc(-c2cc(-c3cccc(C(=O)NCCN(C)C)c3)cnc2N)n1 [Y-083, 3-(2′-Amino-6-methoxy-[2,3′]bipyridinyl-5′-yl)-N-(2-dimethylamino-ethyl)-benzamide]
22 | < 1000 nM | CN(C)CCNC(=O)c1cccc(-c2cnc(N)c(-c3ccnc(Cl)c3)c2)c1 [Y-085, 3-(2-Amino-2′-chloro-[3,4′]bipyridinyl-5-yl)-N-(2-dimethylamino-ethyl)-benzamide]
23 | < 1000 nM | COc1ccc2cc(-c3cc(-c4cccc(C(=O)NCCN(C)C)c4)cnc3N)ccc2c1 [Y-087, 3-[6-Amino-5-(6-methoxy-naphthalen-2-yl)-pyridin-3-yl]-N-(2-dimethylamino-ethyl)-benzamide]
24 | < 1000 nM | CN(C)CCNC(=O)c1cccc(-c2cnc(N)c(-c3ccc4nccnc4c3)c2)c1 [Y-091, 3-(6-Amino-5-quinoxalin-6-yl-pyridin-3-yl)-N-(2-dimethylamino-ethyl)-benzamide]
25 | < 1000 nM | CCN(CC)CCNC(=O)c1cccc(-c2cnc(N)c(-c3cccc(OC)c3)c2)c1 [Y-096, 3-[6-Amino-5-(3-methoxy-phenyl)-pyridin-3-yl]-N-(2-diethylamino-ethyl)-benzamide]
